Measurements from patent US20020131997A1, “Method for treating hematologic disorders with water insoluble 20 (S)-camptothecin” (priority 2000, published 2002).

Tests used:
[1] = Stability of 9NC at room temperature, activity determined by HPLC; assay type: physicochemical; conditions: left at room temperature (25° C.) for 2 months
Method: 9-nitro-20(S)-camptothecin (9NC) was encapsulated in oral dosage of gelules containing 1 mg 9NC by a registered pharmacist. When 9NC is left at room temperature (25° C.) for 2 months, the loss of activity is minimal and has been estimated to be less than 5%+4.6%. Determination of activity has been done by HPLC. The gelules are preferably stored in freezers.

[2] = test system: Ph-negative bcr/abl-negative CML; assay: Clinical treatment of patients with Ph-negative bcr/abl-negative CML with oral 9NC gelules; assay type: in vivo, human
Description: (§1) Twenty five patients with hematologic disorders were admitted for the treatment with 9NC. Among them, 9 patients had Philadelphia chromosome (Ph)-negative bcr/abl-negative CML; 8 patients had Philadelphia chromosome (Ph)-positive CML (6 in chronic phase and 2 in accelerated phase); 7 patients had CMML; and one had MDS (RAEB, refractory anemia with excess blasts). Median age of patients was 65 years, ranging from age 29 to age 77. Median white blood cell (WBC) counts was 25.2×10^9/L (range: 4.5-76×10^9/L); and median platelet count was 223×10^9/L (range: 23-1042×10^9/L). Among the patients for the treatment, 14 patients had splenomegaly, with median of 10.5 cms below costal margin (range: 1-13 cms). The 8 patients with Ph-positive CML were previously treated with interferon (IFN). Except for 5 patients, 12 other patients were also previously treated with IFN. Prior to the treatment of the present invention, the patients were off chemotherapy using other anticancer drugs for 2 weeks and recovered from toxicity of that chemotherapy.
(§2) The dosing schedule was designed as the following. The drug product, 9NC gelules, are orally administered into patients for 5 consecutive days every week. Four weeks of treatment with 9NC oral dosage defines one course of treatment. Courses are repeated every 4-6 weeks, depending on patient response and recovery of WBC and platelet counts. The total daily 9NC dose is given in 2 equal divided doses (e.g. 8 a.m. and 8 p.m.).
(§3) The dose of treatment with 9NC was designed to be modified at 5 dose levels according to myelosuppression and extramedullary toxicity. The starting dose schedule at level 0 is 2.0 mg/m^2 9NC orally daily, 5 days every week. Dose level +1 is 2.5 mg/m^2 9NC orally daily, 5 days every week. Dose level +2 is 3.0 mg/m^2 9NC orally daily, 5 days every week. Dose level −1 is 1.5 mg/m^2 9NC orally daily, 5 days every week. Dose level −2 is 1.5 mg/m^2 9NC orally daily, 4 days every week.
(§4) During the course of treatment, if there is no response to 9NC and the patient's hematologic toxicity is less than grade II, the dose level is increase by 1 level. If there is no response to 9NC and the patient's hematologic toxicity is at grade II, the dose level stays at the same level. If there is response to 9NC and the patient's hematologic toxicity is at grade III or IV, the dose level is decreased by 1 level. If there is no response to 9NC and the patient's hematologic toxicity is at grade III or IV, the patient is off the treatment with 9NC.
If low hematologic counts is due to myelosuppression, not disease, subsequent courses can be delayed until WBC >2.0×10^9/L and platelets >80×10^9/L. If low counts are attributed to persistent disease, subsequent courses are started regardless of the counts.
The criteria for response to patients with CML are as follows.
Complete hematologic remission (CHR): Normalization for at least 4 weeks of the bone marrow (less than 5% blasts) and peripheral blood with WBC <10×10^9/L and no peripheral blasts, promyelocytes or myelocytes. This is in addition to disappearance of all signs and symptoms of the disease.
Partial hematologic remission (PHR): CHR except for persistence of immature cells (myelocytes, metamyelocytes), or splenomegaly <50% of pretreatment, or thrombocytosis >450×10^9/L but <50% of pretreatment.
Gelules of 9NC were orally administrated into the 9 patients with Ph-negative bcr/abl-negative CML. The starting dose was 2 mg/m^2 daily for 5 days every week. Doses were adjusted according to myelosuppression and extramedullary toxicity as described above. […] Thus, the objective response (OR) was 6/9.

Ph-positive CML = assay: Clinical treatment of patients with Ph-positive CML with oral 9NC gelules; assay type: in vivo, human; conditions: of 8 patients
Description: as §1, §2
The dose of treatment with 9NC was designed to be modified at 5 dose levels according to myelosuppression and extramedullary toxicity. The starting dose schedule at level 0 is 2.0 mg/m^2 9NC orally daily, 5 days every week. Dose level +1 is 2.5 mg/m^2 9NC orally daily, 5 days every week. Dose level +2 is 3.0 mg/m^2 9NC orally daily, 5 days every week. Dose level −1 is 1.5 mg/m^2 9NC orally daily, 5 days every week. Dose level −2 is 1.5 mg/m^2 9NC orally daily, 4 days every week. […]

CMML = assay: Clinical treatment of patients with CMML with oral 9NC gelules; assay type: in vivo, human
Description: as §1, §2, §3, §4
If low hematologic counts is due to myelosuppression, not disease, subsequent courses can be delayed until WBC >2.0×10^9/L and platelets >80×10^9/L. If low counts are attributed to persistent disease, subsequent courses are started regardless of the counts. […]

MDS of the RAEB type = assay: Clinical treatment of patient with MDS (RAEB type) with oral 9NC gelules; assay type: in vivo, human; conditions: one patient, starting dose 2 mg/m^2 daily for 5 days every week
Description: as §1
as §2, with “The total daily 9NC dose is given in 2 equal divided doses (e.g. 8 a.m. and 8 p.m.).” left out

dogs = assay: Toxicology studies in dogs; assay type: in vivo
mice = assay: Toxicology studies in mice; assay type: in vivo
[3] = of 9 patients, oral, starting dose 2 mg/m^2 daily for 5 days every week

CC[C@@]1(O)C(=O)OCc2c1cc1n(c2=O)Cc2cc3c([N+](=O)[O-])cccc3nc2-1 [9NC, 9-nitro-20(S)-camptothecin]
loss of activity [1]: less than 5%+4.6%
spleen response ([2]; in all 8 patients with splenomegaly): at least minor spleen response
patients resistant to the treatment [2, 3]: 2 patients
patients stable [2, 3]: 1 patient
patients with complete remission [2, 3]: 2 patients
patients with partial remission [2, 3]: 4 patients
objective response (OR) ([2]; responders/patients, oral, starting dose 2 mg/m^2 daily for 5 days every week): 6/9
patients who did not show response to the treatment (Ph-positive CML): 6 patients
patients with complete response hematologically and cytogenetically (Ph-positive CML; oral, starting dose 2 mg/m^2 daily for 5 days every week): 1 patient
patients with minor spleen response (Ph-positive CML; patient in accelerated phase): 1 patient
patients resistant to the treatment (CMML; of 7 patients): 1 patient
patients with hematologic improvement in WBC or splenomegaly (CMML; of 7 patients): 4 patients
patients with partial remission (CMML; of 7 patients, oral, starting dose 2 mg/m^2 daily for 5 days every week): 2 patients
objective response (OR) (CMML; responders/patients): 6/7
response by MDS criteria (MDS of the RAEB type): complete remission
primary toxicity (dogs): intestinal
tolerability (dogs; 1.0 mg/kg/day, administered for over 2 months): well tolerated
primary toxicity (mice): intestinal
